Experimental data: US20190247322A1, “Active Mixture of 1,2-hexanediol and 1,2-octanediol” (Symrise AG, priority 2015, published 2019)

Tests used:
[1] = water (20° dH) at 20° C., solid active agent; cited from earlier work
[2] = test system: Echerichia coli; assay: Antimicrobial activity, minimum inhibitory concentration; assay type: cell-based
Description: (§1) Antimicrobial activity of a mixture of 1,2-hexanediol and 1,2-octanediol (1:1) was investigated compared to the individual 1,2-diols with regard to 5 prominent microorganisms:
(§2) EC Echerichia coli PA Pseudomonas aeruginosa SA Staphylococcus aureus CA Candida albicans AN Aspergillus niger
(§3) Shown are the minimum inhibitory concentrations (MICs) in percent.

[3] = test system: Pseudomonas aeruginosa; assay: as above; assay type: cell-based
Description: as §1, §2, §3

[4] = test system: Candida albicans; assay: as above; assay type: cell-based
Description: as §1, §2, §3

[5] = test system: Staphylococcus aureus; assay: as above; assay type: cell-based
Description: as §1, §2, §3

[6] = test system: Aspergillus niger; assay: as above; assay type: cell-based
Description: as §1, §2, §3

Nc1nc2c(ncn2COCCO)c(=O)[nH]1 [Acyclovir, 2-Amino-1,9-dihydro-9-((2-hydroxyethoxy)methyl)-6H-Purin-6-one]
solubility in water [1]: less than 5 g/L

CCCCC(O)CO (centres unmarked) [Comparative Example C1, 1,2-hexanediol]
minimum inhibitory concentration (MIC), EC [2]: 1.25% | minimum inhibitory concentration (MIC), PA [3]: 0.63% | minimum inhibitory concentration (MIC), CA [4]: 1.25% | minimum inhibitory concentration (MIC), SA [5]: 2.50% | minimum inhibitory concentration (MIC), AN [6]: 0.63%

CCCCCCC(O)CO (centres unmarked) [Comparative Example C2, 1,2-octanediol]
minimum inhibitory concentration (MIC), EC [2]: 0.63% | minimum inhibitory concentration (MIC), PA [3]: 0.63% | minimum inhibitory concentration (MIC), CA [4]: 0.31% | minimum inhibitory concentration (MIC), SA [5]: 1.25% | minimum inhibitory concentration (MIC), AN [6]: 0.16%
